Like-named read-outs stand apart in the source and are kept apart here.
Tests used:
[1] = system: plasma enzymes; assay: half-life of prodrug ester in plasma (hydrolysis by plasma enzymes); conditions: plasma
[2] = stability against chemical hydrolysis in pH solutions; assay type: physicochemical
[3] = half-life of prodrug ester in plasma (hydrolysis by plasma enzymes); conditions: in plasma at physiologic pH
[4] = cited from earlier work

Cc1cccc(Nc2ccccc2C(=O)OCCOC(=O)N2CCOCC2)c1C [2-[(2,3-Dimethylphenyl)amino]-benzoic acid morpholinocarbonyloxyethyl ester]
half-life [1]: 20 min
half-life ([2]; pH 1.0 solution, pH 1, 1.0 pH solution, read-out: half life in a 1.0 pH solution (converted)): 456 min
half-life ([2]; pH 7.4 solution, pH 7.4, 7.4 pH solution, read-out: half life in a 7.4 pH solution (converted)): 3960 min

O=C(Cc1ccccc1Nc1c(Cl)cccc1Cl)OCCOC(=O)N1CCOCC1 [2-[(2,6-Dichlorophenyl])amino]benzene-acetic acid morpholinocarbonyloxyethyl ester]
half-life in plasma [3]: 21 min
half life in a 1.0 pH solution ([2]; 1.0 pH solution): 8 hours
half life in a 7.4 pH solution ([2]; 7.4 pH solution): 47 hours

O=C(Oc1ccccc1C(=O)O)c1ccccc1O [Salsalate, salsalate]
solubility at normal acidic gastric pH [4]: insoluble

Source: patent US20050004118A1, “Prodrugs of non-steroidal anti-inflammatory and carboxylic acid containing compounds” (priority 2000, published 2005)
